Experiments:
[1] = [3H]OT administered to lactating rats; cited from earlier work
[2] = Plasma OT after intestinal delivery of OT in pups (EIA); assay type: in vivo, mice
Method: To confirm that the above increase after oral administration was primarily owing to permeability from the intestine, 5 μL of 100 μM OT (0.5 μg/pup) was applied directly into the small intestine, bypassing the mouth, buccal mucosal membrane, and/or upper parts of the digestive tract, including the oesophagus and stomach. The plasma OT in blood samples collected from the neck (Fig. 2a, inset) reached a peak at 10 min and decreased at 60 min and 120 min after intestinal application (Supplementary Fig. 1). […] The plasma OT level was higher at PND1 and PND3 than at PND7 in the group injected with OT (***P < 0.001 and **P < 0.01; Fig. 2a).
OT (100 μM) was injected through needles (28 G) into the proximal part (1~2 cm from the pylorus) of the small intestine of pups (5 μL) and adults (100 μL) under ketamine anaesthesia ([…] intraperitoneally), after the abdominal skin was cut to expose the small intestine in the abdominal cavity. The intestine was returned to the cavity or covered with paper and rinsed with saline. For the isolated pup intestines, 30 μL of 10 μM OT was injected at the distal end.
(§1) Approximately 30 μL of blood was collected from the facial vein of neonates after quick cold anesthesia on ice (Fig. 1a; ref. [67], [68]). […]
(§2) OT or AVP immunoreactivity levels were quantified by using OT and AVP enzyme immunoassay (EIA) kits (Enzo Life Sciences, NY, USA), respectively. […]

[3] = Plasma OT after oral delivery of OT in adult mice (EIA); assay type: in vivo
Method: In adult male mice (8 weeks old), when oral OT was administered at the same dose used for neonates (1 μg/mouse), as in Fig. 1b, no increase in the plasma OT concentration was observed (data not shown). To examine whether permeability exists in the adult intestine after barrier formation, a 10-fold higher volume of OT (100 μM × 100 μL) was used for oral delivery (10 μg/mouse). Blood samples were collected from anesthetized mice using a tail snip procedure, and OT concentrations were measured (Fig. 5a, inset).
Milk-borne OT was fed by mothers for 20 min after 20 min of starvation. A synthetic OT solution (100 µM; 10 μL for pups and 100 μL for adults) was administered orally. The same dose of [ILe^13C, ^15N]OT was delivered orally to pups. For oral administration, pups or adult mice were held by hand, and the OT solution was dispensed into their mouths using polypropylene tips.
as §1, §2

[4] = Plasma OT after oral delivery of OT in pups (EIA); assay type: in vivo, mice; conditions: both sexes, C57BL/6N, 1 μg/mouse, wild-type pups PND6, oral 1 μg of OT/mouse, n = 5–8, read-out: Time of peak plasma OT concentration (converted)
Method: The possibility of transport during the suckling period of development (from PND1 to PND15) was confirmed by comparing plasma OT levels at 10 min after oral delivery with 10 μL of 100 μM synthetic OT solution (1 μg/pup) or the same volume of phosphate buffered saline (PBS) to male and female pups after fasting for 30 min. […] The plasma OT concentrations after oral OT delivery remained at higher levels at PND3–5 than in the saline controls (two-way analysis of variance (ANOVA), F 8.90 = 3.32, P < 0.002: Bonferroni’s post hoc tests for differences between OT and PNDs (^a P < 0.001, ^b P < 0.01, and ^c P < 0.05 from the value at PND8) and between OT and PBS (^d P < 0.01). The OT concentration dropped suddenly after PND6, although it remained higher than that in the saline control group. At PND8 and PND15, no concentration difference in plasma OT levels was observed between pups orally administered OT vs. those administered PBS.
The time profile of the plasma OT concentration after oral administration of OT peaked at 10 min in pups at PND6 (n = 5–8, one-way ANOVA, F 5,37 = 3.302, P < 0.02 from the control value; Fig. 1c). The plasma OT level depended on the oral OT dose in pups at PND6 (one-way ANOVA, F 3,24 = 20.35, P < 0.0001; Fig. 1d). […]
as §2

[5] = cited from earlier work
Source text: Breast milk contains a dynamic supply of hormones, including oxytocin (OT[4], [5], [10]–[15]), which is concentrated from the mother’s general circulation. […] OT in early life plays a role in the development of the social brain and in establishing social behaviour in adults, [20]–[23]. Therefore, breast milk not only nourishes beneficial microbes and provides immunity but also appears to improve well-being by improving human communication, [24]–[28]. Altho ...

[6] = much longer in mucosal tissues; cited from earlier work
Source text: OT absorption through the intestine was more difficult to detect in adults. The reasons for this difference with age may be owing to the progressive digestion of OT and strengthening of the gastrointestinal tract barrier. Similarly, a gradual decline in plasma OT concentrations during development appears to be caused by establishment of the intestinal barrier and intestinal digestion (Ref. [49] and Fig. 3d). Digestion is at a low level at birth and increases progressively during the first week in mice and humans. However, digestion of OT takes more than 30 min and is much longer in mucosal ...

[7] = Plasma OT after suckling of dam's milk in pups, estimate of availability; assay type: in vivo, mice
Method: […] No clear difference in the OT level was observed between male and female pups.
An estimation of bioavailability was performed in adult mice. Fifty ng/mL of OT was detected after oral delivery of 10 μg of OT. Young adults weigh approximately 30 g and have 2.3 mL blood, so approximately 1% of oral OT can be absorbed. We have previously identified OT in the mammary tissues of mouse dams and in the milk curd inside the oesophagi of pups[13]. To determine the OT concentrations in milk, we needed to collect milk from the mothers. One common method is to collect milk after stimulating secretion with external OT. Because such milk contains external OT, we were unable to calculate the OT concentrations in milk. However, we carried out a new collection method without exogenous OT stimulation. We obtained samples at 5 days after parturition, and the concentration of milk OT was 1,200 pg/mL. If we estimate a pup’s milk intake to be 100 μL, the pups will ingest 120 pg of OT. […] According to Tanaka et al.[11], when [^3H]OT is administered to lactating rats, the radioactivity of intact OT in the neonatal content is 4.4% of the counts obtained for the maternal plasma. […]
as §2

Compound | Radioactivity of intact OT in the neonatal content, % of the counts of maternal plasma [1] [%] | Tmax ([2]; both sexes, C57BL/6N, mouse, plasma, pups (PND5, Supplementary Fig. 1), 0.5 μg/pup into the small intestine, read-out: Time of peak plasma OT concentration (converted)) [min] | Decrease of plasma OT concentration from PND1 to PND7 ([2]; wild-type pups, 10 min after intestinal OT injection (0.5 μg/pup)) | Change of plasma OT concentration ([3]; adult male mice (8 weeks old), oral 1 μg/mouse, data not shown) | Oral OT absorbed (estimated bioavailability) ([3]; adult mice, oral 10 μg of OT, assumes 30 g weight and 2.3 mL blood) | Tmax [4] [min] | Stability in gastric acid [5] | Time for digestion of OT [6] | Availability of milk OT ([7]; PND5 pups, milk OT 1,200 pg/mL, milk intake 100 μL (120 pg), blood volume 200 μL, increase 20 pg) [%] | Increase of plasma OT after suckling ([7]; pups fed with dam's milk)
[^3H]OT: tritium-labelled oxytocin administered to lactating rats in a cited study | 4.4 | – | – | – | – | – | – | – | – | –
CC[C@H](C)[C@@H]1NC(=O)[C@H](Cc2ccc(O)cc2)NC(=O)[C@@H](N)CSSC[C@@H](C(=O)N2CCC[C@H]2C(=O)N[C@@H](CC(C)C)C(=O)NCC(N)=O)NC(=O)[C@H](CC(N)=O)NC(=O)[C@H](CCC(N)=O)NC1=O [OT, oxytocin] | – | 10 | approximately 4.6 fold | no increase | approximately 1% | 10 | relatively stable | more than 30 min | 16.6 | approximately 100 pg/mL

Reference: article PMC5554167, “Intestinal transepithelial permeability of oxytocin into the blood is dependent on the receptor for advanced glycation end products in mice” (Scientific Reports, 2017)
